Reference: patent US20220183287A1, “METHODS FOR KILLING PESTS” (The United States of America, as represented by the …, priority 2020, published 2022)
Marks after values point to notes of the source that are not given here.

Key:
[1] = test system: Heterodera glycines eggs; assay: Microwell assay: eggs immersed in compounds, hatch and activity of hatched J2; assay type: in vivo; settings: 0.1%; for % Active Day 2 / % Active Day 5 / % Active Day 7: J2 hatched from immersed eggs; for Hatch Day 2 / Hatch Day 5 / Hatch Day 7: hatched J2 per well, about 35 eggs per well
Description: (§1) All chemicals were used without further purification.
(§2) These are reported as 0.1% herein.
(§3) The nematodes were then incubated at 26° C. […] Two trials were conducted for each assay.
(§4) The assumptions of the model were checked.

[2] = test system: M. incognita eggs; assay: as above; assay type: in vivo, Meloidogyne incognita; settings: 0.1%; for % Active Day 2 / % Active Day 5 / % Active Day 7: J2 hatched from immersed eggs; for Hatch Day 2 / Hatch Day 5 / Hatch Day 7: hatched J2 per well, about 35 eggs per well
Description: as §1, §2, §3, §4

[3] = test system: M. incognita second-stage juveniles; assay: Microwell assay: previously hatched J2 immersed in compounds, activity and viability; settings: for % Active Day 1 / % Active Day 2: 0.1%, previously hatched J2 in aqueous solution; for viability at 0.1 % / mortality at 0.1 %: Meloidogyne incognita, 72 h; for viability at 0.1 %: read-out: % Viable Day 3 rinsed; for mortality at 0.1 %: read-out: nonviable (killed) J2
Description: Nematode cultures: As described in Meyer et al. (Meyer, S. L. F., et al., Nematropica, 46: 85-96 (2016)), M. incognita race 1 (originally isolated in Maryland) was maintained in a greenhouse (24° to 29° C.; natural and supplemental lighting combined for a 16-h daylength) on susceptible cayenne pepper (Capsicum annuum) TA-136′ plants. All greenhouse experiments described herein were conducted under the same conditions. Two to three months after pepper plant inoculation, egg masses were picked from roots. Eggs were separated by 5 min immersion in 0.6% sodium hypochlorite, followed by a rinse in sterile distilled water (SDW). To collect second-stage juveniles (J2) for microwell assays, the surface-sterilized eggs were placed in a hatching chamber (Spectra/Mesh Nylon Filter, openings 25-μm-diam.; Spectrum Laboratories Inc., Rancho Dominguez, Calif.) set in an autoclaved dish that was placed on a rotary shaker for 3 days at 35 rpm. For some M. incognita and H. glycines assays, 25 or […] kanamycin monosulfate (Phytotechnology Laboratories, Shawnee Mission, Kans.) was added to the hatching chamber to prevent growth of bacteria. The collected J2 were then rinsed with water to remove the kanamycin monosulfate.
(§5) Compounds for the studies were purchased from three different companies: methyl benzoate, CAS Number 93-58-3, ≥99% purity; Tween 20, CAS Number: 9005-64-5; Tween 80, CAS Number: 9005-65-6; ethyl benzoate, CAS Number: 93-89-0, natural, ≥99% purity, FCC, FG; vinyl benzoate, CAS Number: 769-78-8, ≥99% purity; n-propyl benzoate, CAS Number: 2315-68-6, 99% purity; n-butyl benzoate, CAS Number: 136-60-7, 99% purity; benzyl benzoate, CAS Number: 120-51-4, natural, ≥99% purity, FCC, FG; methyl 2-methylbenzoate, CAS Number: 89-71-4, 99% purity; methyl 2-chlorobenzoate, CAS Number: 610-96-8, ≥98% purity; methyl 2-methoxybenzoate, CAS Number: 606-45-1, 99% purity and methyl 2-nitrobenzoate, CAS Number: 606-27-9, 98% purity were purchased from Sigma-Aldrich (St. Louis, Mo.). Compounds, iso-butyl benzoate, CAS Number 120-50-3, >98% purity; n-pentyl benzoate, CAS Number: 2049-96-9, ≥98% purity; and n-hexyl benzoate, CAS Number: 6789-88-4, ≥98% purity were purchased from Alfa Aesar (Tewksbury, Mass.). The compounds methyl 3-methoxybenzoate (methyl m-anisate), CAS Number: 5368-81-0; 97% and methyl 3-methylbenzoate (methyl m-toluate), CAS Number: 99-36-5, 97% purity were purchased from TCI America (Portland, Oreg.). All chemicals were used without further purification. Deionized water (DI) containing 1% emulsifier (v/v), Tween 20 and Tween 80, at 1:1 ratio was used to make different VOCs (volatile organic compounds) water solutions and also used as blank control.
(§6) For tests with individual compounds, the concentration of each compound was 0.1% before placement into wells; the final concentration in the wells was 0.095% after addition to eggs or J2 suspended in water. These are reported as 0.1% herein. An exception was Trial 2, M. incognita J2 activity and viability (Table 2): the final concentration was 0.1% after placement in wells. Low concentrations were selected for assays of combined compounds to determine if the combinations would increase nematotoxicity.
(§7) Laboratory assays were conducted in 96-well polystyrene plates following general procedures described in Wen et al. (2019). Each well received approximately 35 J2 (for previously hatched J2 assays) or 35 eggs that each contained either a first-stage juvenile (J1) or a J2. The plates were covered with plastic adhesive sealing film (Excel Scientific, Inc., Victorville Calif.) and then with the plate lids. Parafilm (Bemis, Neenah, Wis.) was used to seal the plates. The nematodes were then incubated at 26° C. […] Following the counts on Day 2, the treatments were removed and the J2 rinsed twice with SDW and incubated in the second rinse. […] Two trials were conducted for each assay.

[4] = test system: H. glycines second-stage juveniles; assay: as above; settings: for % Active Day 1 / % Active Day 2 / reduction in % viable J2 compared with the Tween control: 0.1%; for % Active Day 1 / % Active Day 2: previously hatched J2 in aqueous solution; for viability at 0.1 %: Heterodera glycines, 72 h, read-out: % Viable Day 3 rinsed; for reduction in % viable J2 compared with the Tween control: Day 3 following water rinse
Description: The isolate of H. glycines race 3, originally isolated in Maryland, was maintained on soybean (Glycine max cv. ‘Essex’). As previously described (Wen, Y., et al. Plant Disease, 103: 2191-2198 (2019)), the roots were gently rubbed in water to dislodge cysts and mature females. The egg suspensions were then poured through nested sieves (#20 over /#60; pore sizes 850 μm and 250 μm diam., respectively) into a 454 g/liter sucrose solution. After 15 min, the cysts and females and cysts that floated to the top were collected, rinsed in water, and crushed with a rubber stopper on a #60 sieve (250-μm diam. pore size) that was partially submerged in distilled water. The egg suspension was washed through nested #230 over #500 sieves (pore sizes 63 μm and 25-μm diam., respectively). The eggs were collected in distilled water, and J2 hatched as described above.
as §5, §6, §7
Statistical analyses: The data were analyzed as either a general linear model using JMP or a generalized linear model for the best distribution to fit the residual using Proc Glimmix (Sas Institute). The assumptions of the model were checked. If not met, then appropriate statistical techniques were used so that data could met the assumptions of the models. In Sas, mean comparisons were done with Sidak adjusted p-values to hold the experiment-wise error at 0.05.

In the case of `CCCCCCOC(=O)c1ccccc1` [nHB, n-Hexyl benzoate], the “% Active Day 2” value [1] is reported as 19.1 ^cd %, the “% Active Day 5” value [1] is reported as 16.8 ^cde % and the “% Active Day 7” value [1] is reported as 14.6 ^bc %. For the same compound, the “Hatch Day 2” value [1] was 7.3 ^bcd, the “Hatch Day 5” value [1] was 7.5 ^bcd and the “Hatch Day 7” value [1] was 7.6 ^bcd. For the same compound, the “% Active Day 2” value [2] was 73.2 ^ab %, the “% Active Day 5” value [2] was 40.5 ^cd % and the “% Active Day 7” value [2] was 16.5 ^b %. For the same compound, the “Hatch Day 2” value [2] was 11.6 ^ab, the “Hatch Day 5” value [2] was 13.0 ^b and the “Hatch Day 7” value [2] was 13.0 ^bc. The “% Active Day 1” value [3] was 84.5 ^a %, the “% Active Day 2” value [3] was 82.4 ^c % and the viability at 0.1 % [3] was 66.3%. The “% Viable Day 3 rinsed” value ([3]; in vivo) was “did not have a significant effect”, the “% Active Day 1” value [4] was 73.2 ^ab % and the “% Active Day 2” value [4] was 63.5 ^ab %. The viability at 0.1 % [4] was 46.2%.

In the case of `CC(C)COC(=O)c1ccccc1` [iBB, iso-Butyl benzoate], the “% Active Day 2” value [1] is reported as 22.4 ^cd %, the “% Active Day 5” value [1] is reported as 18.4 ^cde % and the “% Active Day 7” value [1] is reported as 13.6 ^bc %. The “Hatch Day 2” value [1] was 6.7 ^bcd, the “Hatch Day 5” value [1] was 7.5 ^bcd and the “Hatch Day 7” value [1] was 7.3 ^bcd. The “decrease in % active J2 compared with the Tween control” value ([2]; J2 hatched from eggs, 7-day incubation) was 60%, the “% Active Day 2” value [2] was 61.2 ^ab % and the “% Active Day 5” value [2] was 51.6 ^bc %. For the same compound, the “% Active Day 7” value [2] was 38.0 ^b %, the “Hatch Day 2” value [2] was 6.4 ^abc and the “Hatch Day 5” value [2] was 7.2 ^bcd. For the same compound, the “Hatch Day 7” value [2] was 8.2 ^bcd, the “% Active Day 1” value [3] was 54.8 ^ab % and the “% Active Day 2” value [3] was 41.1 ^b %. For the same compound, the viability at 0.1 % [3] was 42.9%, the mortality at 0.1 % [3] was 52% and the “reduction in % viable J2 compared with the Tween control” value [4] was 43%. For the same compound, the “% Active Day 1” value [4] was 55.6 ^c %, the “% Active Day 2” value [4] was 45.2 ^cd % and the viability at 0.1 % [4] was 34.5%.

In the case of `COC(=O)c1ccccc1Cl` [M2CB, Methyl 2-chlorobenzoate], the “% Active Day 2” value [1] is reported as 0 ^e %, the “% Active Day 5” value [1] is reported as 6.4 ^de % and the “% Active Day 7” value [1] is reported as 0 ^d %. For the same compound, the “inactive J2 that hatched from the eggs” value ([1]; by Day 7) was 100%, the “Hatch Day 2” value [1] was 5.4 ^cd and the “Hatch Day 5” value [1] was 5.8 ^cd. For the same compound, the “Hatch Day 7” value [1] was 5.5 ^cd, the pest or weed control at 0.1 % ([1]; Heterodera glycines, 168 h, Day 7, read-out: egg hatch suppression compared with the Tween control) was 64 to 80% and the “decrease in total hatch compared with the Tween control” value ([2]; Day 7) was roughly 95%. For the same compound, the “% Active Day 2” value [2] was 0 ^c %, the “% Active Day 5” value [2] was 0 e % and the “% Active Day 7” value [2] was 0 ^c %. The “Hatch Day 2” value [2] was 1.7 ^d, the “Hatch Day 5” value [2] was 1.7 ^e and the “Hatch Day 7” value [2] was 2.3 ^e. For the same compound, the “% Active Day 1” value [3] was 0 ^f %, the “% Active Day 2” value [3] was 0 ^d % and the viability at 0.1 % [3] was 0%. For the same compound, the mortality at 0.1 % [3] was 100%, the “reduction in % viable J2 compared with the Tween control” value [4] was 99% and the “% Active Day 1” value [4] was 0.46 ^e %. The “% Active Day 2” value [4] was 1.6 ^g % and the viability at 0.1 % [4] was 0.5%.
